ChEMBL document CHEMBL1201862, “PubChem BioAssay data set” (2004)
Calls of active or inactive are those of the source.

Key:
[1] = inhibitors of CMV-promoter luciferase reporter, dose response, counter-screen for Pax8 inhibitor project, cell-based, HEK293, luminescence, dry powder (AID 743020); type: functional
Paired box protein Pax-8 = Paired box protein Pax-8 (Homo sapiens, UniProt Q06710); test: inhibitors of PAX8-driven TPO luciferase reporter, dose response, RMG-I cells, cherry-pick (AID 687027); type: functional, cell-based;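 note: luciferase reporter driven by Pax8 target thyroperoxidase promoter measured by SteadyGlo luminescence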
Paired box protein Pax-8, sequence (Q06710 whole entry, the tested form may be a part): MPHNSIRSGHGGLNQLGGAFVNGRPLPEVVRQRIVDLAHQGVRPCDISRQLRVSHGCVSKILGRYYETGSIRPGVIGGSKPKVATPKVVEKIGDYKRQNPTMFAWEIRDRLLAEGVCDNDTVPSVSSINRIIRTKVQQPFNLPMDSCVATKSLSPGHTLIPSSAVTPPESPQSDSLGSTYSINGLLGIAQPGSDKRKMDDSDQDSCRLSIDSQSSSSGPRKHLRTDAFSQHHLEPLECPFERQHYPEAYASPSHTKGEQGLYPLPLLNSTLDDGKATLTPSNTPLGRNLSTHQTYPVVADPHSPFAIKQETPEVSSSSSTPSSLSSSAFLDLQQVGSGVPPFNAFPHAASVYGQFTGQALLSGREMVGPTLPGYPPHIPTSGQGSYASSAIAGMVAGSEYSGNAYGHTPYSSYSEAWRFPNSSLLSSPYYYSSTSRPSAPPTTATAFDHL

[2] = target: Disintegrin and metalloproteinase domain-containing protein 17 (Homo sapiens, UniProt P78536); test: exosite inhibitors of ADAM17, dose response, biochemical (AID 743260)
Disintegrin and metalloproteinase domain-containing protein 17, sequence (P78536 whole entry, the tested form may be a part): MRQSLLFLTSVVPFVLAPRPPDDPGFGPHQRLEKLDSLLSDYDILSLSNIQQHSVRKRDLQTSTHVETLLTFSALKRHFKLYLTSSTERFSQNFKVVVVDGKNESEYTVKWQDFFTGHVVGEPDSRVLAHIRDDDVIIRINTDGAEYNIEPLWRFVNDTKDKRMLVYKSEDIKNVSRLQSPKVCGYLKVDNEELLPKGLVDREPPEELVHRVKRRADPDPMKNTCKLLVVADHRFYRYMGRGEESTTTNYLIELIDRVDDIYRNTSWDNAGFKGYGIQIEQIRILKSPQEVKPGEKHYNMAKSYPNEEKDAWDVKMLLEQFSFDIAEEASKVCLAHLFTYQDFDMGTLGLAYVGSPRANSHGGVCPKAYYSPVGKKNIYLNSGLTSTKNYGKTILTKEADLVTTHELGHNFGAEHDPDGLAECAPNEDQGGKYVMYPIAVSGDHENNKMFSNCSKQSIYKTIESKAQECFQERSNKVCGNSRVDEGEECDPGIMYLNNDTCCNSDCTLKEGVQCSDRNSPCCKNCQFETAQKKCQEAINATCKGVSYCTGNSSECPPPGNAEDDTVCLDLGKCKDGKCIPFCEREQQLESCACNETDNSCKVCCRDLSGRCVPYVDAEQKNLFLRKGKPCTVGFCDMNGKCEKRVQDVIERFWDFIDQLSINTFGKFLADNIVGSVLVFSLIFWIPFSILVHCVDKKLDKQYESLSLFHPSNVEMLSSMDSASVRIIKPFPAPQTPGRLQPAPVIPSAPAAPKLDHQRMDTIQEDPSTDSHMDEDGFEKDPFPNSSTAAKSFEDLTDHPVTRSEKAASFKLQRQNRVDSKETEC

BJ [3] = test: cytotoxicity toward BJ-TERT-LT-ST fibroblasts, dose response, cell-based, RAS-independent, luminescence (AID 1935); type: functional; conditions: Homo sapiens;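 note: BJ fibroblasts immortalized with TERT plus LT and ST oncogenes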
[4] = cytotoxicity toward DRD oncogenic fibroblasts, dose response, cell-based, non-viral oncogenic, luminescence (AID 1934); type: functional; conditions: Homo sapiens
[5] = C. albicans growth with fluconazole, confirmation, fluorescence, retest (AID 2467); type: functional, cell-based
BJ [6] = test: cells; type: functional, cell-based; conditions: Homo sapiens
[7] = NIH-3T3 fibroblast cytotoxicity, dose response, cytotoxicity control, cell-based, fluorescence, Alamar Blue, secondary assay (AID 2327); type: functional;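 note: NIH-3T3 mouse fibroblasts cultured with fluconazole at 8 µg/mL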
[8] = human group III sPLA2 inhibitors, dose response, biochemical, QFRET, IC50 (AID 743457);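 note: green fluorescence rise as the enzyme cleaves BODIPY PC-A2 in liposomes; potency for inhibition of the enzyme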
[9] = target: T1, Rac GTPase-activating protein 1 (Homo sapiens, UniProt Q9H0H5); test: MgcRacGAP GTPase-activating activity inhibitors, confirmation, biochemical, ADP Hunter fluorescence, primary and confirmatory (AID 624330); type: functional
T1 sequence (Q9H0H5 whole entry): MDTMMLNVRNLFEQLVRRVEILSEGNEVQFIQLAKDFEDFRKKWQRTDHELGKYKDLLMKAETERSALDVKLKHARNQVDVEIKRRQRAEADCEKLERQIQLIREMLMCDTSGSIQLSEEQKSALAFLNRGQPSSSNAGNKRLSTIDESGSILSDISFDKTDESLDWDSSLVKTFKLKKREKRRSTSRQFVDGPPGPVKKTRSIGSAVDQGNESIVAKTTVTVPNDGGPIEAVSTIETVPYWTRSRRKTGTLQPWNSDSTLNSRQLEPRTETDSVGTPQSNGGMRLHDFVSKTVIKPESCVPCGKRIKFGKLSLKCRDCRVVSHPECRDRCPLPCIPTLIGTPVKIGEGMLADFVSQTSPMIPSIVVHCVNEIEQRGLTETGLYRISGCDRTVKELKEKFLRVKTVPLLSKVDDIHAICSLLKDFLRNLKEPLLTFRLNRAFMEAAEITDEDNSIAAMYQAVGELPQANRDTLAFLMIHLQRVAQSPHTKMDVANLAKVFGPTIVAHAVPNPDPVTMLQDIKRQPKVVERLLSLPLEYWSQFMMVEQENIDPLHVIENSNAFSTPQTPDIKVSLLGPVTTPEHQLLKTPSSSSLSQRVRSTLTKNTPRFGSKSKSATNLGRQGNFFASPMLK

BJ [10] = test: cytotoxicity toward BJ-TERT fibroblasts, dose response, cell-based, RAS-independent, luminescence (AID 1933); type: functional; conditions: Homo sapiens
[11] = target: T2, Histone-lysine N-methyltransferase NSD2 (Homo sapiens, UniProt O96028); type: biochemical
T2 sequence (O96028 whole entry): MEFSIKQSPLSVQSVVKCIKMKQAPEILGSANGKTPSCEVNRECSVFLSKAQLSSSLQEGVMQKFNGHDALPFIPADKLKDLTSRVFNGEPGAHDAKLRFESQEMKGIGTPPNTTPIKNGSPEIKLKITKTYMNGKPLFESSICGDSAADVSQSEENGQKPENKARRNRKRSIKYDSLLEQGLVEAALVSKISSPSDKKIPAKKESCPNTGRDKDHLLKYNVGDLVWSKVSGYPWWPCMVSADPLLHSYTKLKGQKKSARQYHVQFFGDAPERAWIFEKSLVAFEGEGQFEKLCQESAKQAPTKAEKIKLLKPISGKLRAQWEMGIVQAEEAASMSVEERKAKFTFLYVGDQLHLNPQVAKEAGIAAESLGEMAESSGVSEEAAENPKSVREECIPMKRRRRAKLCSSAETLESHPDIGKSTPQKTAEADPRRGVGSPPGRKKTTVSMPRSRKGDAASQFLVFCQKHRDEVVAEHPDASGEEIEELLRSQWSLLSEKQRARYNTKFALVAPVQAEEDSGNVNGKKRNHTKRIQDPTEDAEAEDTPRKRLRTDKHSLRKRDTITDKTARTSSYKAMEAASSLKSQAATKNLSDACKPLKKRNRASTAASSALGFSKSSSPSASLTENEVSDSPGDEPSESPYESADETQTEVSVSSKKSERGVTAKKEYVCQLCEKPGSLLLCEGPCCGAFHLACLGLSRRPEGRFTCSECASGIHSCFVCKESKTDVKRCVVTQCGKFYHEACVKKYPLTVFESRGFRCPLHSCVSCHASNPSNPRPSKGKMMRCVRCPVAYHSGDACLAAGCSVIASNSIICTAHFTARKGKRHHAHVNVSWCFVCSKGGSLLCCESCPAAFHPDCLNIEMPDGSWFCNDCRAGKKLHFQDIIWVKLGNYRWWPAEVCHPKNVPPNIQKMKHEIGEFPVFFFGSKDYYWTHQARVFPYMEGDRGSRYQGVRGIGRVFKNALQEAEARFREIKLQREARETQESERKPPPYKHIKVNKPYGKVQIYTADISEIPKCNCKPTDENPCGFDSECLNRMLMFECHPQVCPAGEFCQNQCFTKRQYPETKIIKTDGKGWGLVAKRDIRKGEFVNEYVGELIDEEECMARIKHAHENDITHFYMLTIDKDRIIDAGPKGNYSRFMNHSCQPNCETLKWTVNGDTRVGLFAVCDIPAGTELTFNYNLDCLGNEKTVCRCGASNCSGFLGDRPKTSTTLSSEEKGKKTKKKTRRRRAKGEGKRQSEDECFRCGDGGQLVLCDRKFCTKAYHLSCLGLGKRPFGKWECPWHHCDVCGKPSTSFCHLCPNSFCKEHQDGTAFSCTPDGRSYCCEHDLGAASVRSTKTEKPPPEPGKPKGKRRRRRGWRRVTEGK

[12] = HeLa cell cytotoxicity, dose response, cytotoxicity control for MgcRacGAP inhibitor project (AID 624300); type: functional
Nonstructural protein 1 = Nonstructural protein 1 (Influenza A virus, UniProt Q194T2); type: functional, Influenza A virus (A/California/07/2009(H1N1))
Nonstructural protein 1, sequence (Q194T2 whole entry): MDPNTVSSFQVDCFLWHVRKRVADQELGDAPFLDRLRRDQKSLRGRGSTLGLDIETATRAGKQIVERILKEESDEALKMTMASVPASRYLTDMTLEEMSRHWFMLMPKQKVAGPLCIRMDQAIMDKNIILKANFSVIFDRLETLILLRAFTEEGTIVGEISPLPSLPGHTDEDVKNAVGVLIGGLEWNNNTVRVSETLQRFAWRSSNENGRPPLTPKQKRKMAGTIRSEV

[13] = THP-1 cell cytotoxicity, dose response, cytotoxicity control for Vif-APOBEC3G degradation inhibitor project, THP-1 cells (AID 1117359); type: functional; conditions: Human immunodeficiency virus 1, THP-1
[14] = Fluorescence-based cell-based high throughput dose response assay for inhibitors of the interaction of nucleotide-binding oligomerization domain containing 2 (NOD2) and the receptor-interacting serine-threonine kinase 2 (RIPK2).; type: functional; conditions: Homo sapiens
[15] = HEK293T cell cytotoxicity, dose response, cytotoxicity control for HIV Vif inhibitor project, cherry-picks (AID 652208); type: functional, cell-based
[16] = HeLa cell cytotoxicity, dose response, cytotoxicity control, 24 h, plate reader, dry powder (AID 686928); type: functional, cell-based
Fatty acid synthase = Fatty acid synthase (Homo sapiens, UniProt P49327); test: FAS thioesterase domain inhibitors, SAR follow-up, biochemical, endpoint fluorescence intensity, powder samples (AID 652164); type: functional
Fatty acid synthase, sequence (P49327 whole entry, the tested form may be a part): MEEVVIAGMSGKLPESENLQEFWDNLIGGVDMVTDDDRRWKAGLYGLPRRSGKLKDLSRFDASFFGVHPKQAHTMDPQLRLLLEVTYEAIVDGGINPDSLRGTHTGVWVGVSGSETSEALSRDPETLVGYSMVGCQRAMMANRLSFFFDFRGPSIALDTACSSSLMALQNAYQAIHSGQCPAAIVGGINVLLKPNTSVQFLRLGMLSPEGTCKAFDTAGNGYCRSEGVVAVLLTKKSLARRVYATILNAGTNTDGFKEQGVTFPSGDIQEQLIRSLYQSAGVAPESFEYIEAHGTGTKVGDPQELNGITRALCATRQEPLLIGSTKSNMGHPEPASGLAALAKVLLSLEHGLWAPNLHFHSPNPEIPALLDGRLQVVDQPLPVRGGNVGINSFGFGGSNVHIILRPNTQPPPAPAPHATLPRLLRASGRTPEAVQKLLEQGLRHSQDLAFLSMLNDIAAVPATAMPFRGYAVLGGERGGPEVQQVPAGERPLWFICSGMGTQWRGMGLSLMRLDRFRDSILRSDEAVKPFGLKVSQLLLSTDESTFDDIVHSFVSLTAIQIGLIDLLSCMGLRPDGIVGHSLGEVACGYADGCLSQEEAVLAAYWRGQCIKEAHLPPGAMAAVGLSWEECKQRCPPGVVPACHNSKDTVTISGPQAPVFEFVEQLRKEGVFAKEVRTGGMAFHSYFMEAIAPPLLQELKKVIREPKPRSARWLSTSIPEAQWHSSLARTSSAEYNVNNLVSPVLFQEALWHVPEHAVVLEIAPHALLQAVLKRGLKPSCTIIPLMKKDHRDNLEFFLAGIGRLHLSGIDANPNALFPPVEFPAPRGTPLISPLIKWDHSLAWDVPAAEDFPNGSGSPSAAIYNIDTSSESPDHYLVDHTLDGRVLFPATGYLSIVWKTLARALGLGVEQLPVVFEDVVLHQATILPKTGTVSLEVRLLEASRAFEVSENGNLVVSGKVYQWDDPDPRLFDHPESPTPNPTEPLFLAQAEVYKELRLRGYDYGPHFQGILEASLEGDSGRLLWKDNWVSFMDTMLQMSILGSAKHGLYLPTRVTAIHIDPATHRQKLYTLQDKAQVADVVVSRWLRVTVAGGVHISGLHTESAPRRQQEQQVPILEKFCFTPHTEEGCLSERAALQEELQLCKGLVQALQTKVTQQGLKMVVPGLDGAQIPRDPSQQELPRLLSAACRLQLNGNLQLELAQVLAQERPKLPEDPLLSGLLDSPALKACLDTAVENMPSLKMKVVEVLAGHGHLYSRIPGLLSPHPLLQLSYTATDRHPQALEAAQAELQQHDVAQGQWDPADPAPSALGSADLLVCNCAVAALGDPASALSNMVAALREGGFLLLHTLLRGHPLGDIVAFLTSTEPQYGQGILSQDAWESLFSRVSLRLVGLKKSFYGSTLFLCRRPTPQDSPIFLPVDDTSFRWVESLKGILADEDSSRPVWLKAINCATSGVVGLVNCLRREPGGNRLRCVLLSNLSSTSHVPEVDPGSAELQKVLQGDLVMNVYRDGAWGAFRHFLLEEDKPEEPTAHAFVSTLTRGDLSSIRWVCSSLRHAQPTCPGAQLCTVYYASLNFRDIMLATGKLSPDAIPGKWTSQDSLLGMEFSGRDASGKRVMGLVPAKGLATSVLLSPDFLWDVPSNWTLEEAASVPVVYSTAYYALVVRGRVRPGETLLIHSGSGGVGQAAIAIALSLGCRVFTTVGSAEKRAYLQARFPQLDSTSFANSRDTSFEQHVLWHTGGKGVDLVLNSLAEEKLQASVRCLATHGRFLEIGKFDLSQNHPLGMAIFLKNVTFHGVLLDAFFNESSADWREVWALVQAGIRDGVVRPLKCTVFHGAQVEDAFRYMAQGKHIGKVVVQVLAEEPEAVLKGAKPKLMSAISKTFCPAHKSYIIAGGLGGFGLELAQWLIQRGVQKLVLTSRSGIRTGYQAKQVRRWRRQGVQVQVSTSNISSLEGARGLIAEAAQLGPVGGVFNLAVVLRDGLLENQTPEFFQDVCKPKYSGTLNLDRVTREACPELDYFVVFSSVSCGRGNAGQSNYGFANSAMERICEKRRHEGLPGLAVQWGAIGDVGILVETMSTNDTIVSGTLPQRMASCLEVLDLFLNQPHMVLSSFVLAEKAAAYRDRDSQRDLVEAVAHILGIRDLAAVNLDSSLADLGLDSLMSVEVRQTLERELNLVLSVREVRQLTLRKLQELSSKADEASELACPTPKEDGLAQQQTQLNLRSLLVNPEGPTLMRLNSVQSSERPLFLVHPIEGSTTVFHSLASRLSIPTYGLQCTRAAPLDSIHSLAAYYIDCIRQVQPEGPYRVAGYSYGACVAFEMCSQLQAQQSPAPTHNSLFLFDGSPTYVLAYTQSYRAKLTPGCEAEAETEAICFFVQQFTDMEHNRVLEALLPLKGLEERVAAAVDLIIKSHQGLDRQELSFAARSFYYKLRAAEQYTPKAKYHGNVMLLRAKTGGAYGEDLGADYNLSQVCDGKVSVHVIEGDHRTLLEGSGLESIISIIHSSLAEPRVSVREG

Protein Wnt-3a = Protein Wnt-3a (Mus musculus, UniProt P27467); test: SAR analysis of small molecule antagonists of Gli-SUFU in a Wnt3a luminescent reporter assay.; type: functional
Protein Wnt-3a, sequence (P27467 whole entry): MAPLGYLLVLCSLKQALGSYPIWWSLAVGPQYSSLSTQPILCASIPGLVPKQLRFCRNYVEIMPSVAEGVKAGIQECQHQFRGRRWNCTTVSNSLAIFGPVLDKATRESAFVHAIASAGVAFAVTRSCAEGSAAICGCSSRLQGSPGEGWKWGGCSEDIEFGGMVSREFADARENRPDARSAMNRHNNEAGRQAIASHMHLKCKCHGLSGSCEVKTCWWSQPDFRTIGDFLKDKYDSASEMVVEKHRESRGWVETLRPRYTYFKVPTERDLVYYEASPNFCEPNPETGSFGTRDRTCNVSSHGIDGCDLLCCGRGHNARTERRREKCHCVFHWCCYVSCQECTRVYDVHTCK

[17] = HEK293 cell cytotoxicity, dose response, cytotoxicity control, plate reader, cherry-picked samples (AID 743446); type: functional, cell-based
[18] = A549 cell cytotoxicity, dose response, cytotoxicity control, plate reader, cherry-pick, antagonist series (AID 743412); type: functional, cell-based
[19] = HepG2 cell cytotoxicity, dose response, cytotoxicity control, plate reader, cherry-pick, antagonist series (AID 743416); type: functional, cell-based
[20] = LGR2 antagonists, dose response, cell-based, HEK293, CRE-luciferase reporter, cherry pick (AID 743342); type: functional
[21] = MC4R antagonists, dose response, counter-screen for LGR2 antagonist project, cell-based, plate reader, cherry pick (AID 743444); type: functional;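 note: transfected HEK 293 cells stimulated with alpha-MSH peptide; potency of inhibitors of the alpha-MSH evoked signal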
[22] = HEK293 cell cytotoxicity, dose response, cytotoxicity control, cherry-picks, set 5 (AID 1053117); type: functional, cell-based
[23] = HepG2 cell cytotoxicity, dose response, cytotoxicity control, cherry-picks, set 5 (AID 1053118); type: functional, cell-based
[24] = A549 cell cytotoxicity, dose response, cytotoxicity control, cherry-picks, 26 µM top dose (AID 1053119); type: functional, cell-based
[25] = Cytotoxicity screening for potential Inhibitors of Bacterial Capsule Biogenesis (4).; type: functional
[26] = A375 melanoma cell viability loss, dose response, counter-screen for MITF inhibitor project, CellTiter-Glo luminescence, dry powder, set 4 (AID 624364); type: functional, cell-based; conditions: A-375;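 note: A375 melanoma cells are MITF independent so this is a counter screen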
[27] = MITF Orthogonal Assay: MALME3 CTG Assay Measured in Cell-Based System Using Plate Reader - 2084-04_Inhibitor_Dose_DryPowder_Activity_Set6.; type: functional; conditions: MALME-3
[28] = A375 melanoma cell viability loss, dose response, counter-screen for MITF modulator project, CellTiter-Glo luminescence, dry powder, set 9 (AID 651591); type: functional, cell-based; conditions: A-375
[29] = A375 melanoma cell cytotoxicity, dose response, counter-screen for MITF inhibitor project, CellTiter-Glo luminescence, dry powder, set 6 (AID 624488); type: functional, cell-based; conditions: A-375
[30] = MITF Orthogonal Assay: SK-MEL-5 CTG Assay Measured in Cell-Based System Using Plate Reader - 2084-02_Inhibitor_Dose_DryPowder_Activity_Set5.; type: functional
[31] = SK-MEL-5 parental cell viability reduction, dose response, orthogonal assay for MITF inhibitor project, CellTiter-Glo luminescence, dry powder, set 8 (AID 651586); type: functional, cell-based
[32] = A375 melanoma cell cytotoxicity, dose response, counter-screen for MITF inhibitor project, CellTiter-Glo luminescence, dry powder, set 2 (AID 624489); type: functional, cell-based; conditions: A-375;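 note: actives are compounds lowering A375 viability meaning general cytotoxicity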
[33] = MITF Measured in Cell-Based System Using Plate Reader - 2084-01_Inhibitor_Dose_DryPowder_Activity_Set7.; type: functional
[34] = SK-MEL-5 parental line viability, dose response, MITF inhibitor project, cell-based, CellTiter-Glo, dry powder, set 6 (AID 624429); type: functional
[35] = MALME3 melanoma cell viability reduction, dose response, orthogonal assay for MITF inhibitor project, CellTiter-Glo luminescence, dry powder, set 5 (AID 651584); type: functional, cell-based; conditions: MALME-3
[36] = TRPM1 promoter luciferase reporter signal decrease, dose response, MITF inhibitor project, cell-based, SK-MEL-5, dry powder, set 9 (AID 651588); type: functional
[37] = A375 melanoma cell cytotoxicity, dose response, counter-screen for MITF inhibitor project, CellTiter-Glo luminescence, dry powder, set 7 (AID 624490); type: functional, cell-based; conditions: A-375
[38] = MITF Measured in Cell-Based System Using Plate Reader - 2084-01_Inhibitor_Dose_DryPowder_Activity_Set6.; type: functional

CC(=O)c1cc(NC(=O)c2cccc(C(F)(F)F)c2)c(=O)oc1C
active: AC50 [1] < 9 µM | AC50 (Paired box protein Pax-8) 15.8 µM

CCOc1ccc(NC(=O)CC2SC(=O)N(c3ccccc3)C2=O)cc1 (stereo not drawn)
active: IC50 [2] 5.73 µM

CN(C)c1ccc(/C=C/C=C/c2sc3ccccc3[n+]2C)cc1.[O-][Cl+3]([O-])([O-])[O-]
inconclusive: EC50 (BJ [10]) 2.83 µM
inactive: EC50 [7] > 150 µM | IC50 [8] 41.6 µM
active: EC50 (BJ [3]) 29.2 µM | EC50 [4] 4.85 µM | EC50 [5] 0.194 µM | EC50 (BJ [6]) 4.81 µM | IC50 [9] 62.6 µM | AC50 [11] 15.8 µM | CC50 [12] 64 µM | IC50 (Nonstructural protein 1) 15 µM

C=CC(=O)N1C/C(=C/c2ccc(F)cc2)C(=O)/C(=C\c2ccc(F)cc2)C1
active: CC50 [13] 0.57 µM | IC50 [14] 3.71 µM | AC50 [15] 1.4 µM | AC50 (Paired box protein Pax-8) 2.36 µM

CC(C)c1ccc2cc3c(NC(=O)c4ccco4)nn(C)c3nc2c1
active: AC50 [16] 91.9 µM

O=C(Nc1nc(-c2ccc(S(=O)(=O)N3CCOCC3)cc2)cs1)C1CCCCC1
inactive: IC50 (Fatty acid synthase) > 80 µM

O=C(Nc1cc(N2CCCCCC2)ncn1)c1ccccc1
inactive: IC50 (Protein Wnt-3a) > 21.8 µM

C[C@H](CO)N1C[C@H](C)[C@H](CN(C)C(=O)Nc2ccc(F)cc2)OCCCC[C@H](C)Oc2ccc(NC(=O)Nc3ccccc3)cc2C1=O
active: AC50 [17] 40.6 µM | AC50 [18] 37 µM | AC50 [19] 35.2 µM | AC50 [20] 6.77 µM | AC50 [21] 44.4 µM

CO[C@@H]1CN(C)C(=O)c2ccc(NC(=O)c3ccc(-c4ccccc4)cc3)cc2OC[C@H](C)NC[C@H]1C
active: AC50 [22] 14 µM | AC50 [23] 11.3 µM | AC50 [24] 13.6 µM

COc1cc(NC(=O)c2ccc3nc(C)sc3c2)ccn1
inactive: CC50 [25] > 300 µM

O=C(NC1=C(Cl)C(=O)c2ccccc2C1=O)c1ccccc1
active: AC50 [26] 45.9 µM | AC50 [27] 7.33 µM | AC50 [28] 28.7 µM | AC50 [29] 16.5 µM | AC50 [30] 13.5 µM | AC50 [31] 3.94 µM | AC50 [32] 22.8 µM | AC50 [33] 0.913 µM | AC50 [34] 9.85 µM | AC50 [35] 7.33 µM | AC50 [36] 1.95 µM | AC50 [37] 23.1 µM | AC50 [38] 0.459 µM
